Results from ChEMBL document CHEMBL4364299, “Discovery of a Potent Kelch-Like ECH-Associated Protein 1-Nuclear Factor Erythroid 2-Related Factor 2 (Keap1-Nrf2) Protein-Protein Interaction Inhibitor with Natural Proline Structure as a Cytoprotective Agent against Acetaminophen-Induced Hepatotoxicity” (J Med Chem, 2019).
The source made the active and inactive calls. No cut-off for these calls is given here.

Columns and labels:
[1] = target: T1, Nuclear factor erythroid 2-related factor 2 (Homo sapiens) (UniProt Q16236); experiment: Activation of Nrf2 in human L02 cells assessed as increase in HO-1 mRNA expression measured after 12 hrs by trizol reagent based qRT-PCR analysis; format: cell-based
T1 sequence (whole entry): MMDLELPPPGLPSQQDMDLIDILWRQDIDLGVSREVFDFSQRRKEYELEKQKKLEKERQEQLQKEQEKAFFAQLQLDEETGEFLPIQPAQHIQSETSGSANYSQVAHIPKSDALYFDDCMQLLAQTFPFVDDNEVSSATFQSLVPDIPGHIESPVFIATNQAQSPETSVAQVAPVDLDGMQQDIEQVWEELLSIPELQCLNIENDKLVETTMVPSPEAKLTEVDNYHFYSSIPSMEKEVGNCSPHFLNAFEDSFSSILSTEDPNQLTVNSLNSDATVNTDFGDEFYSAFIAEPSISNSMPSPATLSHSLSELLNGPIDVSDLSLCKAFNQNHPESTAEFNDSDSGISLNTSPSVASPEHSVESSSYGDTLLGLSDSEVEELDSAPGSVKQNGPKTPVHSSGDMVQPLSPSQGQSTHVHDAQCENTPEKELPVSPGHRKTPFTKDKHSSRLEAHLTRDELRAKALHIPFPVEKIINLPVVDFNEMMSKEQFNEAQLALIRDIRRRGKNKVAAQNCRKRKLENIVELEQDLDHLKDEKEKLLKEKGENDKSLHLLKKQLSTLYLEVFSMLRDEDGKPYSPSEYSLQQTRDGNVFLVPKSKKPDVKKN

[2] = system: L02; experiment: Cytoprotective activity against APAP-induced hepatotoxicity in human L02 cells harboring Nrf2 siRNA assessed as increase in cell viability at 5 to 10 uM preincubated for 12 hrs followed by APAP addition and measured after 24 hrs by MTT assay; format: functional, cell-based
[3] = system: Mus musculus; experiment: Protection against APAP-induced hepatotoxicity in C57BL/6 mouse assessed as decrease in NQO1 expression in liver at 10 to 40 mg/kg, ip treated 2 hrs prior to 22 hrs starvation followed by APAP challenge and measured after 6 hrs by Dako/Mayer's hematoxylin staining-based immunohistochemical analysis; format: functional, organism-based
[4] = system: L02; experiment: Cytoprotective activity against APAP-induced oxidative stress in human L02 cells assessed as decrease in ALT level at 5 to 10 uM preincubated for 12 hrs followed by APAP stimulation and measured after 24 hrs; format: functional, cell-based
[5] = system: Mus musculus; experiment: Protection against APAP-induced hepatotoxicity in C57BL/6 mouse assessed as decrease in liver hemorrhage at 10 to 40 mg/kg, ip treated 2 hrs prior to 22 hrs starvation followed by APAP challenge and measured after 6 hrs by H and E staining-based light microscopic analysis; format: functional, organism-based
[6] = system: Mus musculus; experiment: Protection against APAP-induced hepatotoxicity in C57BL/6 mouse assessed as increase in GSH/GSSG ratio in liver at 10 to 40 mg/kg, ip treated 2 hrs prior to 22 hrs starvation followed by APAP challenge and measured after 6 hrs; format: functional, organism-based
[7] = system: L02; experiment: Cytoprotective activity against APAP-induced oxidative stress in human L02 cells assessed as decrease in MDA activity at 5 to 10 uM preincubated for 12 hrs followed by APAP stimulation and measured after 24 hrs; format: functional, cell-based
[8] = target: T1, Nuclear factor erythroid 2-related factor 2 (Homo sapiens); experiment: Activation of Nrf2 in human L02 cells harboring control siRNA assessed as increase in NEFL2L expression at 10 uM measured after 10 hrs by Western blot analysis; format: cell-based
[9] = system: L02; experiment: Upregulation of HO-1 expression in human L02 cells harboring Nrf2 siRNA at 10 uM measured after 10 hrs by Western blot analysis; format: functional, cell-based
[10] = system: L02; experiment: Cytoprotective activity against APAP-induced hepatotoxicity in human L02 cells assessed as increase in cell viability at 1 to 20 uM preincubated for 12 hrs followed by APAP addition and measured after 24 hrs by MTT assay; format: functional, cell-based
[11] = system: Mus musculus; experiment: Protection against APAP-induced hepatotoxicity in C57BL/6 mouse assessed as decrease in TNFalpha production at 10 mg/kg, ip treated 2 hrs prior to 22 hrs starvation followed by APAP challenge and measured after 6 hrs; format: functional, organism-based
[12] = target: T1, Nuclear factor erythroid 2-related factor 2 (Homo sapiens); experiment: Activation of Nrf2 in human L02 cells assessed as increase in NQO-1 expression measured after 12 hrs by Western blot analysis; format: cell-based
[13] = system: Mus musculus; experiment: Protection against APAP-induced hepatotoxicity in C57BL/6 mouse assessed as decrease in MDA activity in liver at 10 to 40 mg/kg, ip treated 2 hrs prior to 22 hrs starvation followed by APAP challenge and measured after 6 hrs; format: functional, organism-based
[14] = system: Mus musculus; experiment: Protection against APAP-induced hepatotoxicity in C57BL/6 mouse assessed as decrease in Nrf2 expression in liver at 10 to 40 mg/kg, ip treated 2 hrs prior to 22 hrs starvation followed by APAP challenge and measured after 6 hrs by Dako/Mayer's hematoxylin staining-based immunohistochemical analysis; format: functional, organism-based
[15] = system: L02; experiment: Upregulation of HO-1 mRNA expression in human L02 cells harboring Nrf2 siRNA at 10 uM measured after 10 hrs by trizol reagent based qRT-PCR analysis; format: functional, cell-based
[16] = system: L02; experiment: Upregulation of NQO-1 mRNA expression in human L02 cells harboring Nrf2 siRNA at 10 uM measured after 10 hrs by trizol reagent based qRT-PCR analysis; format: functional, cell-based
[17] = system: Mus musculus; experiment: Protection against APAP-induced hepatotoxicity in C57BL/6 mouse assessed as destruction of liver structure at 10 to 40 mg/kg, ip treated 2 hrs prior to 22 hrs starvation followed by APAP challenge and measured after 6 hrs by H and E staining-based light microscopic analysis; format: functional, organism-based
[18] = system: Mus musculus; experiment: Protection against APAP-induced hepatotoxicity in C57BL/6 mouse assessed as decrease in MPO activity in liver at 10 to 40 mg/kg, ip treated 2 hrs prior to 22 hrs starvation followed by APAP challenge and measured after 6 hrs; format: functional, organism-based
[19] = system: Mus musculus; experiment: Protection against APAP-induced hepatotoxicity in C57BL/6 mouse assessed as decrease in IL6 production at 10 mg/kg, ip treated 2 hrs prior to 22 hrs starvation followed by APAP challenge and measured after 6 hrs; format: functional, organism-based
[20] = target: T1, Nuclear factor erythroid 2-related factor 2 (Homo sapiens); experiment: Activation of Nrf2 (unknown origin) stably transfected in human HepG2-ARE-C8 cells assessed as increase in ARE-driven luciferase activity by luciferase reporter gene assay; format: cell-based
[21] = system: Mus musculus; experiment: Protection against APAP-induced hepatotoxicity in C57BL/6 mouse assessed as decrease in IL1beta production at 10 mg/kg, ip treated 2 hrs prior to 22 hrs starvation followed by APAP challenge and measured after 6 hrs; format: functional, organism-based
[22] = system: Mus musculus; experiment: Protection against APAP-induced hepatotoxicity in C57BL/6 mouse assessed as decrease in reactive oxygen species level in liver at 10 to 40 mg/kg, ip treated 2 hrs prior to 22 hrs starvation followed by APAP challenge and measured after 6 hrs; format: functional, organism-based
[23] = target: T1, Nuclear factor erythroid 2-related factor 2 (Homo sapiens); experiment: Activation of Nrf2 in human L02 cells harboring control siRNA assessed as increase in GCLM expression at 10 uM measured after 10 hrs by Western blot analysis; format: cell-based
[24] = system: Mus musculus; experiment: Protection against APAP-induced hepatotoxicity in C57BL/6 mouse assessed as decrease in ALP level at 10 mg/kg, ip treated 2 hrs prior to 22 hrs starvation followed by APAP challenge and measured after 6 hrs; format: functional, organism-based

SMILES: COc1ccc(S(=O)(=O)N(CC(=O)O)c2ccc(N3CCC[C@H]3C(=O)O)c3ccccc23)cc1
- Activity [1]: Dose-dependent effect
- Activity [2]: inactive
- Activity [3]: Active
- Activity [4]: Active
- Activity [5]: Active
- Activity [6]: Active
- Activity [7]: Active
- Activity [8]: Active
- Activity [9]: inactive
- Activity [10]: Active
- Activity [11]: Active
- Activity [12]: Dose-dependent effect
- Activity [13]: Active
- Activity [14]: Active
- Activity [15]: inactive
- Activity [16]: inactive
- Activity [17]: Active
- Activity [18]: Active
- Activity [19]: Active
- Activity [20]: Dose-dependent effect
- Activity [21]: Active
- Activity [22]: Active
- Activity [23]: Active
- Activity [24]: Active
